Read-outs that look alike come from different tables or passages of the source.
Assays:
[1] = tested on: Rats; assay: Sciatic nerve ligation (SNL) model of neuropathic pain, L5/L6 spinal nerve ligation, von Frey filaments; format: in vivo; details: response at Tmax
Text: Left L5 and L6 spinal nerves are isolated adjacent to the vertebral column and were ligated with 5-0 silk suture distal to the dorsal root ganglion, as described by Kim and Chung (1992). The incision was closed with the help of GLUture topical tissue adhesive. At 14 days post-surgery (one day prior to test compound administration), mechanical allodynia was quantified using eight von Frey filaments, calibrated in the range 0.4-15.1 g (Nielsen et al 2005). Rats were placed into individual plastic containers on top of a suspended wire mesh grid and acclimated to the test chambers for at least 15 min. Filaments were applied perpendicular to the mid-plantar paw surface, with enough force to cause slight buckling, and held in place for 6-8 sec until a response was noted as a sharp paw withdrawal, flinching, licking and/or biting immediately upon removal of the filament (Nielsen et al 2005). […] Test compounds of Formula (I) were administered and a response was measured at Tmax. The maximum possible effect (% MPE) was determined to be 100% if the sensitivity in the ipsilateral paw neared that of the contralateral paw. Values from vehicle-treated animals were considered 0 %. The compound effect was determined based on these values.

[2] = target: T1, human N-type Ca channel (Homo sapiens, UniProt Q00975); assay: Calcium influx assay (FDSS), KCl depolarization, Fluo8 dye; format: cell-based; set-up: host or cells: HEK 293; details: HEK 293 cells expressing human N-type Ca channel; 100 mM KCl; read-out: N Type IC50 Data FDSS
T1 sequence (Q00975 whole entry): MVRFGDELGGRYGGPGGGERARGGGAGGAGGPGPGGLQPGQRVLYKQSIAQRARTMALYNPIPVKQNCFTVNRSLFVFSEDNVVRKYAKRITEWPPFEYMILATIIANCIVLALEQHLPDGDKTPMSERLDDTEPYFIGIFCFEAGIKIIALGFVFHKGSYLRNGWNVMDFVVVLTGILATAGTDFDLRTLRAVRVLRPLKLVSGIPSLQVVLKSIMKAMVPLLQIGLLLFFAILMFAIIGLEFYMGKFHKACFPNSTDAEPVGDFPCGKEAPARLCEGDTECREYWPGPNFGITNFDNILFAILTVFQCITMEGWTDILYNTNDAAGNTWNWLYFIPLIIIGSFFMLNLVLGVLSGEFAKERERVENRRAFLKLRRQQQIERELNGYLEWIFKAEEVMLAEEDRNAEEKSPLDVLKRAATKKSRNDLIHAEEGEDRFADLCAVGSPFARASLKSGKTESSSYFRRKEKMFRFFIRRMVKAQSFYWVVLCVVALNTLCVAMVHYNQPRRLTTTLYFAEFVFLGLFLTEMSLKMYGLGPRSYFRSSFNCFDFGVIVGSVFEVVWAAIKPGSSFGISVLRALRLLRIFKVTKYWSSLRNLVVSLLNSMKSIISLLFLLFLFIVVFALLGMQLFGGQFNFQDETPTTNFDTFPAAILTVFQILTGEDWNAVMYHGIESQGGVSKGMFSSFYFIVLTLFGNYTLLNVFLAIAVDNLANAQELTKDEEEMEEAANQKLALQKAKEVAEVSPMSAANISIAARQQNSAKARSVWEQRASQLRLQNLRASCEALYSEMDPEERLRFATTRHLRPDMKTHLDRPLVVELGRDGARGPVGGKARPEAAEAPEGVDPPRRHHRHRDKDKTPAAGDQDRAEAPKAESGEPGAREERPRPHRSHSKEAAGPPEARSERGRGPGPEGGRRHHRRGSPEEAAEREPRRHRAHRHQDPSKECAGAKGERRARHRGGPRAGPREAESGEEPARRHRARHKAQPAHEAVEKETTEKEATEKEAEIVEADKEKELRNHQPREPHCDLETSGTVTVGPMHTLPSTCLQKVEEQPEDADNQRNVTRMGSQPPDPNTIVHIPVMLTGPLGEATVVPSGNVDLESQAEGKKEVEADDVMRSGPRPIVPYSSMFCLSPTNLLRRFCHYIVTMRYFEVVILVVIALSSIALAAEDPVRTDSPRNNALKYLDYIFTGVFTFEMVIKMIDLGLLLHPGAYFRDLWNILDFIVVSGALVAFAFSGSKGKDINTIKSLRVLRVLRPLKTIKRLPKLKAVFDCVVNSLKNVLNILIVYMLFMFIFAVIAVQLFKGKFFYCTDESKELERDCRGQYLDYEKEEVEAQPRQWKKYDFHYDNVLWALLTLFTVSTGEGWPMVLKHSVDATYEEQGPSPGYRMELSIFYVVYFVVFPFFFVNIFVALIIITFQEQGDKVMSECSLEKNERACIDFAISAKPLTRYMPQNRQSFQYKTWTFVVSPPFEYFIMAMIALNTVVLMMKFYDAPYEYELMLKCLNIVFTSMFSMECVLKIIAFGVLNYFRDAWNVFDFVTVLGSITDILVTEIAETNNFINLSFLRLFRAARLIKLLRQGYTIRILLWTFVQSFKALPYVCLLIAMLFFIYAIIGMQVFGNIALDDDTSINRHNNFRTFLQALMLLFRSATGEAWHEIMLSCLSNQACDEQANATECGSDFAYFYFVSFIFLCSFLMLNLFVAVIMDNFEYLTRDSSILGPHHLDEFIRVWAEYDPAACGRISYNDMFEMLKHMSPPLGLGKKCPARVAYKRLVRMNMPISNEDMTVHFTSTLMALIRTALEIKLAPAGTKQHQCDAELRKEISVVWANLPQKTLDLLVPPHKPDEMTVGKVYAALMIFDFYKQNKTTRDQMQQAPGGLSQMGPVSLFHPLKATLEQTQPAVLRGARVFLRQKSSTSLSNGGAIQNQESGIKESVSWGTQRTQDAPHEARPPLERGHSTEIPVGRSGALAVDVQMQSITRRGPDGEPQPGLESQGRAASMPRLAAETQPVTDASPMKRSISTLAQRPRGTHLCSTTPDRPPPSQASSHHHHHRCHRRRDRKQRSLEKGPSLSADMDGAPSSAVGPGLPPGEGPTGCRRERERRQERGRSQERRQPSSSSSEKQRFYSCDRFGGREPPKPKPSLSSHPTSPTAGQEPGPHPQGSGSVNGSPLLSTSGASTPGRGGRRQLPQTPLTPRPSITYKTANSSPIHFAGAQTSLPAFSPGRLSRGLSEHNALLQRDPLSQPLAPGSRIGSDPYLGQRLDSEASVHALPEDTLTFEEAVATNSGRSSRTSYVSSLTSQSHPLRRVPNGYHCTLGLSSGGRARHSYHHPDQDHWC
T1 sequence (P54284 whole entry partner): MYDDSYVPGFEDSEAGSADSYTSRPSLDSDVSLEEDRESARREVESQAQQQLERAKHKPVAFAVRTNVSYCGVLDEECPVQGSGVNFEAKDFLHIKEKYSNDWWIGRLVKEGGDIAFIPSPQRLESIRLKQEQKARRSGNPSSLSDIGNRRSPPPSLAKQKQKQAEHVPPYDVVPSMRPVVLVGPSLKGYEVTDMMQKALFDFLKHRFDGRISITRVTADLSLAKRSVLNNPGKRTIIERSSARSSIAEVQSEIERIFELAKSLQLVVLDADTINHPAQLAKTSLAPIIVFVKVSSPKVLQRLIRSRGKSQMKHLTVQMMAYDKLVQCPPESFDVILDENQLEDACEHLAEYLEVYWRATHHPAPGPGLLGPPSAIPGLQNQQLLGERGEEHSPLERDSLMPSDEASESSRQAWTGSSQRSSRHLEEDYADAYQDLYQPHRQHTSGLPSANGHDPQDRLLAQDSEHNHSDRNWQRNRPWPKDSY
T1 sequence (P54289 25-956 partner limits assumed): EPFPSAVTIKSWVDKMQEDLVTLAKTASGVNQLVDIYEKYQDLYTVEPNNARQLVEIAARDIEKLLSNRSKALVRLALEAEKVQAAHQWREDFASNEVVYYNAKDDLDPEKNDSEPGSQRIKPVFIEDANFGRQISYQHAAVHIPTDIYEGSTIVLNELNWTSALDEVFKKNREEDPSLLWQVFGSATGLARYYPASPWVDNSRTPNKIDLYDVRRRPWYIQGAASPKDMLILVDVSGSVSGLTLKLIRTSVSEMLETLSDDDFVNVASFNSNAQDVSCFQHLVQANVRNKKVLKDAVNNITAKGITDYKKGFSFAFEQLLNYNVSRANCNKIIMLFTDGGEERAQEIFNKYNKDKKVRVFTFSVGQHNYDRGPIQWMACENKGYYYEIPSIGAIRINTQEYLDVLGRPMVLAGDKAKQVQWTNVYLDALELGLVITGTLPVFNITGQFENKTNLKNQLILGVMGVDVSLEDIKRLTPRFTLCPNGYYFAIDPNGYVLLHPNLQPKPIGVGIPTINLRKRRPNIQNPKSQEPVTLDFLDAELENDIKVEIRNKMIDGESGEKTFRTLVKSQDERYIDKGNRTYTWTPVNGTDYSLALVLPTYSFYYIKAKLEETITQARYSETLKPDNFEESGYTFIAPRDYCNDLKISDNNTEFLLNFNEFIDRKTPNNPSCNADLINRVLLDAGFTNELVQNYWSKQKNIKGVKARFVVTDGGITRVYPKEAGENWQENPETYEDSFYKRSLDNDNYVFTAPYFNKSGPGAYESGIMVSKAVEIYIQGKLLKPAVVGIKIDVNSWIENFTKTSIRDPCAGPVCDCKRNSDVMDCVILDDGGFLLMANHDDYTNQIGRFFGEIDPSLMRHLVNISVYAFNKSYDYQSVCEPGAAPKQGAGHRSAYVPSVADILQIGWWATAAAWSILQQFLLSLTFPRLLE
T1 sequence (P54289 957-1103 partner limits assumed): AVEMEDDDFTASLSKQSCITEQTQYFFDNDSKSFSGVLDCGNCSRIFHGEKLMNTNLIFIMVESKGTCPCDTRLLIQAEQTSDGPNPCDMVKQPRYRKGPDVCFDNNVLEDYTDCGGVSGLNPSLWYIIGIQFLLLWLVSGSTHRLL
Method in brief: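 HEK293 cells stably expressing the human N-type Ca channel were loaded with Fluo8 and washed in choline-based buffer (pH 7.2, 2 mM CaCl2, 2 mM KCl). Cells were preincubated with serially diluted compound for 15 min in the dark. Ca influx was then recorded by fluorescence after depolarization with 100 mM KCl.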

[3] = target: T1, human N-type Ca channel; assay: Electrophysiological response, QPatch (depolarization -80 mV to +20 mV)
[4] = N Type IC50 Data Qpatch Pulse=1, Pulse=1, concentration range 0.3-10 µM
[5] = N Type IC50 Data Qpatch Pulse=15, Pulse=15, concentration range 0.3-10 µM
[6] = read-out: Qpatch Pulse=15 (percent inhibition)
[7] = N Type IC50 Data Qpatch Pulse=1, Pulse=1, concentration range 0.01-1 µM
[8] = read-out: N Type IC50 Data Qpatch Pulse=15, Pulse=15, concentration range 0.01-1 µM
[9] = read-out: Qpatch Pulse=1 (percent inhibition)
[10] = N Type IC50 Data Qpatch Pulse=15, Pulse=15, concentration range 0.01-1 µM

SMILES | IC50 [2] | IC50 [3, 4] | IC50 [3, 5] | other results
COc1ncccc1-c1nc(C2CC(C)(C)OC(C)(C)C2)cn1-c1ccc(F)cc1 [Compound 10, 3-(1-(4-fluorophenyl)-4-(2,2,6,6-tetramethyltetrahydro-2H-pyran-4-yl)-1H-imidazol-2-yl)-2-methoxypyridine] | 401 nM | 5920 nM | 1470 nM | SNL(%MPE) ([1]; Dose 3 mg/kg): 12.17±11.24%; SNL(%MPE) ([1]; Dose 10 mg/kg): 40.53±13.64%; SNL(%MPE) ([1]; Dose 30 mg/kg): 54.59±13.37%; SNL(%MPE) ([1]; Dose 100 mg/kg): 85.45±8.44%
COc1ccccc1-c1nc(C2CC(C)(C)OC(C)(C)C2)cn1-c1ccc(Cl)cc1 [Compound 38, 1-(4-chlorophenyl)-2-(2-methoxyphenyl)-4-(2,2,6,6-tetramethyltetrahydro-2H-pyran-4-yl)-1H-imidazole] | 372 nM | 2400 nM | 769 nM | SNL(%MPE) ([1]; Dose 50 mg/kg): 87.01± 9.25%
COc1ccncc1-c1nc(C2(O)CC(C)(C)OC(C)(C)C2)cn1-c1ccc(Cl)cc1 [Compound 103, 4-(1-(4-chlorophenyl)-2-(4-methoxypyridin-3-yl)-1H-imidazol-4-yl)-2,2,6,6-tetramethyltetrahydro-2H-pyran-4-ol] | 367 nM | 4300 nM | – | inhibition at 10 µM [3, 6]: 31%
COc1ncccc1-c1nc(C2(O)CC(C)(C)OC(C)(C)C2)cn1-c1ccc(Cl)cc1 [Compound 105, 4-(1-(4-chlorophenyl)-2-(2-methoxypyridin-3-yl)-1H-imidazol-4-yl)-2,2,6,6-tetramethyltetrahydro-2H-pyran-4-ol] | 300 nM | 8300 nM | 3820 nM | IC50 [3, 7]: 964 nM; IC50 [3, 8]: > 1000 nM
COc1ccccc1-c1nc(C2(O)CC(C)(C)OC(C)(C)C2)cn1-c1ccc(F)c(F)c1 [Compound 107, 4-(1-(3,4-difluorophenyl)-2-(2-methoxyphenyl)-1H-imidazol-4-yl)-2,2,6,6-tetramethyltetrahydro-2H-pyran-4-ol] | 430 nM | 3530 nM | 2420 nM | –
COc1ncccc1-c1nc(C2(O)CC(C)(C)OC(C)(C)C2)cn1-c1ccc(F)c(F)c1 [Compound 108, 4-(1-(3,4-difluorophenyl)-2-(2-methoxypyridin-3-yl)-1H-imidazol-4-yl)-2,2,6,6-tetramethyltetrahydro-2H-pyran-4-ol] | 394 nM | 5800 nM | 7400 nM | –
COc1ccccc1-c1nc(C2(O)CC(C)(C)OC(C)(C)C2)cn1-c1ccc(C(F)(F)F)nc1 [Compound 109, 4-(2-(2-methoxyphenyl)-1-(6-(trifluoromethyl)pyridin-3-yl)-1H-imidazol-4-yl)-2,2,6,6-tetramethyltetrahydro-2H-pyran-4-ol] | 322 nM | 4500 nM | 7900 nM | –
COc1ncccc1-c1nc(C2(O)CC(C)(C)OC(C)(C)C2)cn1-c1ccc(F)c(Cl)c1 [Compound 110, 4-(1-(3-chloro-4-fluorophenyl)-2-(2-methoxypyridin-3-yl)-1H-imidazol-4-yl)-2,2,6,6-tetramethyltetrahydro-2H-pyran-4-ol] | 385 nM | – | – | inhibition at 10 µM [3, 9]: 44%; inhibition at 10 µM [3, 6]: 30%
COc1ccccc1-c1nc(C2(O)CC(C)(C)OC(C)(C)C2)cn1-c1ccc(F)c(Cl)c1 [Compound 111, 4-(1-(3-chloro-4-fluorophenyl)-2-(2-methoxyphenyl)-1H-imidazol-4-yl)-2,2,6,6-tetramethyltetrahydro-2H-pyran-4-ol] | 257 nM | – | 2500 nM | inhibition at 10 µM [3, 9]: 62%
COc1ccccc1-c1nc(C2(O)CC(C)(C)OC(C)(C)C2)cn1-c1ccc(Cl)c(F)c1 [Compound 112, 4-(1-(4-chloro-3-fluorophenyl)-2-(2-methoxyphenyl)-1H-imidazol-4-yl)-2,2,6,6-tetramethyltetrahydro-2H-pyran-4-ol] | 41 nM | 2500 nM | 3000 nM | –
COc1ncccc1-c1nc(C2(O)CC(C)(C)OC(C)(C)C2)cn1-c1ccc(Cl)c(F)c1 [Compound 113, 4-(1-(4-chloro-3-fluorophenyl)-2-(2-methoxypyridin-3-yl)-1H-imidazol-4-yl)-2,2,6,6-tetramethyltetrahydro-2H-pyran-4-ol] | 83 nM | 4400 nM | 7800 nM | –
CCOc1ncccc1-c1nc(C2(O)CC(C)(C)OC(C)(C)C2)cn1-c1ccc(Cl)cc1 [Compound 114, 4-(1-(4-chlorophenyl)-2-(2-ethoxypyridin-3-yl)-1H-imidazol-4-yl)-2,2,6,6-tetramethyltetrahydro-2H-pyran-4-ol] | 607 nM | – | – | IC50 [3, 7]: 668 nM; IC50 [3, 10]: > 1000 nM
COc1ccccc1-c1nc(C2(O)CC(C)(C)OC(C)(C)C2)cn1-c1ccc(F)c(C#N)c1 [Compound 117, 2-fluoro-5-(4-(4-hydroxy-2,2,6,6-tetramethyltetrahydro-2H-pyran-4-yl)-2-(2-methoxyphenyl)-1H-imidazol-1-yl)benzonitrile] | 1440 nM | – | – | inhibition at 10 µM [3, 9]: 40%; inhibition at 10 µM [3, 6]: 25%
COc1ccccc1-c1nc(C2(O)CC(C)(C)OC(C)(C)C2)cn1-c1ccc(C#N)c(F)c1 [Compound 118, 2-fluoro-4-(4-(4-hydroxy-2,2,6,6-tetramethyltetrahydro-2H-pyran-4-yl)-2-(2-methoxyphenyl)-1H-imidazol-1-yl)benzonitrile] | 150 nM | 8100 nM | – | –
COc1ncccc1-c1nc(C2(O)CC(C)(C)OC(C)(C)C2)cn1-c1ccc(C#N)c(F)c1 [Compound 119, 2-fluoro-4-(4-(4-hydroxy-2,2,6,6-tetramethyltetrahydro-2H-pyran-4-yl)-2-(2-methoxypyridin-3-yl)-1H-imidazol-1-yl)benzonitrile] | 1290 nM | – | – | inhibition at 10 µM [3, 9]: 28%
COc1cnccc1-c1nc(C2(O)CC(C)(C)OC(C)(C)C2)cn1-c1ccc(Cl)cc1 [Compound 120, 4-(1-(4-chlorophenyl)-2-(3-methoxypyridin-4-yl)-1H-imidazol-4-yl)-2,2,6,6-tetramethyltetrahydro-2H-pyran-4-ol] | 108 nM | 1600 nM | 9100 nM | –
CC1(C)CC(c2cn(-c3ccc(Cl)cc3)c(-c3ccc[nH]c3=O)n2)CC(C)(C)O1 [Compound 122, 3-(1-(4-chlorophenyl)-4-(2,2,6,6-tetramethyltetrahydro-2H-pyran-4-yl)-1H-imidazol-2-yl)pyridin-2(1H)-one] | 3010 nM | – | – | IC50 ([3]; read-out: N Type IC50 Data Qpatch Pulse=1, Pulse=1, concentration range 0.01-1 µM): > 1000 nM; IC50 [3, 8]: > 1000 nM
COc1ccccc1-c1nc(C2CC(C)(C)OC(C)(C)C2)cn1-c1ccc(C#N)c(Cl)c1 [Compound 123, 2-chloro-4-(2-(2-methoxyphenyl)-4-(2,2,6,6-tetramethyltetrahydro-2H-pyran-4-yl)-1H-imidazol-1-yl)benzonitrile] | 129 nM | – | – | IC50 [3, 7]: 468 nM; IC50 [3, 10]: > 1000 nM
COc1ccccc1-c1nc(C2=CC(C)(C)OC(C)(C)C2)cn1-c1ccc(Cl)cc1 [Compound 124, 1-(4-chlorophenyl)-2-(2-methoxyphenyl)-4-(2,2,6,6-tetramethyl-3,6-dihydro-2H-pyran-4-yl)-1H-imidazole] | 103 nM | 2500 nM | 1600 nM | –
COc1ccccc1-c1nc(C2=CC(C)(C)OC(C)(C)C2)cn1-c1ccc(Br)c(F)c1 [Compound 125, 1-(4-bromo-3-fluorophenyl)-2-(2-methoxyphenyl)-4-(2,2,6,6-tetramethyl-3,6-dihydro-2H-pyran-4-yl)-1H-imidazole] | 313 nM | 2100 nM | 2300 nM | –
